PubChem BioAssay AID2060507 (Molecular Pharmacology Branch, DTP, NCI, 2025)
Where “and” joins values, the source holds several entries; their conditions need not be identical. Identical values can stand only once.

Test system: 519858-162-T-J1-PDC complex spheroid viability
Assay: Anticancer human tumor 519858-162-T-J1-PDC patient-derived colon adenocarcinoma cell line growth inhibition [GQUAD]
Details: for viability, T/C: stronger effect = lower value; for IC50: curve of compound
Description: DNA G-quadruplex Stabilizer Agents in Combinations in Complex Spheroids
A high-throughput screen of multi-cell type tumor spheroids was designed to identify active combinations of DNA G-quadruplex stabilizer agents and targeted small molecules. Complex spheroids include a stromal component modeled by human endothelial cells (HUVEC) and fibroblasts modeled by human mesenchymal stem cells (MSCs). The concentration ranges selected for each drug and investigational agent were based upon clinically achievable concentrations if the clinical Cmax of the agent was known.
Compounds. The drugs and investigational agents: pidnarulex (CX-5461; NSC782164), APTO-253 (NSC789042), BRACO-19 (NSC847499), peposertib (NSC802822), ceralasertib (NSC780249), elimusertib (NSC800525), camonsertib (NSC841442), AZD-1390 (NSC803789), olaparib (NSC753686), talazoparib (NSC767125), ART-558 (NSC835418), sotorasib (NSC818433), MRTX-1133 (NSC836407), SN-38 (NSC673596), topotecan (NSC609699), etoposide (NSC141540), doxorubicin (NSC123127), gemcitabine (NSC613327), 5-fluorouracil (NSC19893), paclitaxel (NSC125973), vemurafenib (NSC761431), panobinostat (NSC761190), R-306465 (JNJ-16241199; NSC773264), adavosertib (NSC754352), TP-3654 (NSC805149), carboplatin (NSC241240), KSQ-4279 (NSC840948), and staurosporine (NSC755774) were obtained from the National Cancer Institute (NCI) Developmental Therapeutics Program Chemical Repository (34). The FDA-approved anticancer drug set is available from the NCI Developmental Therapeutics Program. […] The stock solutions were prepared in dimethyl sulfoxide (DMSO, Sigma-Aldrich, St. Louis, MO, cat. D2650) at 800-fold the tested concentration and stored at -70 degrees C prior to their use. All drugs and investigational agents were tested over a range starting from a high concentration at or near the clinical Cmax and decreasing in half-log increments. If the clinical Cmax for an agent had not been determined, the highest concentration tested was 10 microM.
2.3 Cell Culture. All cells were maintained in an incubator at 37 degrees C and 5% CO2 with 95% humidity. The PDC lines were cultured according to standard operating procedures established by the NCI PDMR. All PDCs were thawed and cultured in Matrigel-coated flasks prepared with a working solution of 1X Ham's F-12 nutrient mix, without supplementation (Invitrogen, cat. 11765054), 100 U/mL penicillin-streptomycin (Invitrogen, cat. 15140122), and 2.5% Matrigel (Corning Inc., cat. 354248) for the first three passages. The 857933-349-R-J2-PDC line was cultured in 6C/Colon 1B media, which includes advanced DMEM/F-12 (Thermo Fisher Scientific, cat. 12634028), 10 mM HEPES (Thermo Fisher Scientific, cat. 15630080), 1X GlutaMAX supplement (Thermo Fisher Scientific, cat. 35050061), 0.1 mg/mL primocin (InvivoGen, cat. ant-pm-2), 10% defined fetal bovine serum, heat inactivated (HyClone Laboratories Inc., cat. SH30070.03HI), 50% L-WRN conditioned media (ATCC, cat. CRL-3276), 1.25 mM N-Acetyl-L-cysteine (Sigma-Aldrich, cat. A9165), 10 mM nicotinamide (Sigma-Aldrich, cat. N0636), 1X B-27 supplement (Thermo Fisher Scientific, cat. 17504044), 1X N-2 supplement (Thermo Fisher Scientific, cat. 17502048), 10 microM Y-27632 dihydrochloride (Tocris Bioscience, cat. 1254), and 50 ng/mL human EGF recombinant protein (Thermo Fisher Scientific, cat. PHG0311). The 485176-168-R4-J1-PDC line was cultured in Panc media, which includes all 6C/Colon 1B media components plus 100 ng/mL human FGF-10 (Thermo Fisher Scientific, cat. 100-26), 500 nM SB-431542 (Selleckchem, cat. S1067), and gastrin (Tocris, cat. 3006).
[…]
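Note: spheroids exposed to compounds for 7 days.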
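Throughout, for viability, T/C: 100% = DMSO vehicle control viability.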

SMILES	IC50	viability, T/C (compound 0.0316 µM)	viability, T/C (compound 0.1 µM)	viability, T/C (compound 0.316 µM)	viability, T/C (compound 1 µM)	viability, T/C (compound 3.16 µM)	viability, T/C (compound 10 µM)	viability, T/C (compound 0.000999 µM)	viability, T/C (compound 0.00316 µM)	viability, T/C (compound 0.00999 µM)	viability, T/C (compound 0.0999 µM)
CC(C)(O)C1CCC(Nc2ccc3ncc(-c4cccc(C(F)(F)F)c4)n3n2)CC1 (centres undefined)	2.46 µM and 1.84 µM	79%	119% and 115%	104% and 106%	80.3% and 73%	34.5% and 13.3%	48.6% and 45.4%	–	–	–	–
CC1COCCN1c1cc(-c2ccnn2C)c2ccnc(-c3ccn[nH]3)c2n1 (centres undefined)	4.78 µM and 2.43 µM	103% and 94%	93.7% and 82.9%	96.7% and 65%	117% and 98.3%	58.8% and 39.7%	34.3% and 26.3%	–	–	–	–
CC1COCCN1c1cc(C2(O)CC3CCC(C2)O3)c2cnn(-c3ccn[nH]3)c2n1 (centres undefined)	> 10 µM and 3.34 µM	109% and 94.9%	107% and 101%	89.3% and 63%	70.9% and 74%	93.6% and 47.8%	66.3% and 38%	–	–	–	–
CC1COCCN1c1cc(C2(S(C)(=N)=O)CC2)nc(-c2ccnc3[nH]ccc23)n1 (centres undefined)	> 10 µM	118% and 109% and 93.2%	80.8% and 90.4% and 89.4%	80.8% and 111% and 79%	115% and 98.5% and 105%	51.5% and 98.4% and 90.3%	61.3% and 105% and 86.2%	–	–	–	–
CCCS(=O)(=O)Nc1ccc(F)c(C(=O)c2c[nH]c3ncc(-c4ccc(Cl)cc4)cc23)c1F	> 10 µM	88.3%	112%	114%	97.1%	125%	103%	–	–	–	–

Further lines, with some results ahead:

IC50	SMILES	viability, T/C (compound 0.0316 µM)	viability, T/C (compound 0.1 µM)	viability, T/C (compound 0.316 µM)	viability, T/C (compound 1 µM)	viability, T/C (compound 3.16 µM)	viability, T/C (compound 10 µM)	viability, T/C (compound 0.000999 µM)	viability, T/C (compound 0.00316 µM)	viability, T/C (compound 0.00999 µM)	viability, T/C (compound 0.0999 µM)
> 10 µM	C#Cc1c(F)ccc2cc(O)cc(-c3ncc4c(N5CC6CCC(C5)N6)nc(OCC56CCCN5CC(F)C6)nc4c3F)c12 (centres undefined)	93.8% and 103% and 90.4%	101% and 86% and 69.8%	110% and 97.8% and 105%	83.9% and 94.1% and 98.5%	88.3% and 93.2% and 89%	86.6% and 71.6% and 81.2%	–	–	–	–
> 10 µM	C=CC(=O)N1CCN(c2nc(=O)n(-c3c(C)ccnc3C(C)C)c3nc(-c4c(O)cccc4F)c(F)cc23)C(C)C1 (centres undefined)	75% and 84.1% and 70.8%	84.2% and 85.5% and 98.3%	89% and 80.9% and 104%	103% and 77.7% and 99%	104% and 70.7% and 95.2%	71.5% and 91% and 74.5%	–	–	–	–
> 10 µM	C=CCn1c(=O)c2cnc(Nc3ccc(N4CCN(C)CC4)cc3)nc2n1-c1cccc(C(C)(C)O)n1	83% and 81.4%	107% and 106%	126% and 105%	104% and 95.3%	83.3% and 94.8%	92.4% and 92.1%	–	–	–	–
> 10 µM	CC(=O)O[C@H]1C(=O)[C@@]2(C)[C@H]([C@H](OC(=O)c3ccccc3)[C@]3(O)C[C@H](OC(=O)[C@H](O)[C@@H](NC(=O)c4ccccc4)c4ccccc4)C(C)=C1C3(C)C)[C@]1(OC(C)=O)CO[C@@H]1C[C@@H]2O	83.9% and 107% and 108%	113% and 101% and 80.3%	93.4% and 80.2% and 97.1%	87% and 83.3% and 85.1%	89% and 82.4% and 95.4%	101% (2×) and 86.7%	–	–	–	–
> 10 µM	CC(C)n1c(=O)n(C)c2cnc3cc(F)c(-c4ccc(OCCCN5CCCCC5)nc4)cc3c21	123% and 93.8%	107% and 102%	86.9% and 69.8%	108% and 91.8%	73.7% and 81.7%	120% and 93.2%	–	–	–	–
> 0.316 µM	CC[C@@]1(O)C(=O)OCc2c1cc1n(c2=O)Cc2cc3c(CN(C)C)c(O)ccc3nc2-1	141% and 107%	–	75.1% and 69.3%	–	–	–	86.1% and 63.7%	69.6% and 123%	93.4% and 97%	90.9% and 92.7%
> 0.316 µM	CCc1c2c(nc3ccc(O)cc13)-c1cc3c(c(=O)n1C2)COC(=O)[C@]3(O)CC	68.9% and 65.7%	–	64.6% and 78.9%	–	–	–	95% and 84%	74.7% and 67.6%	43.7% and 57.5%	89.6% and 60.6%
